Where two headings read alike, the source gives them in different places.
Assays:
[1] = tested on: NMCdkn2a^ARF−/− cells; test: Colony formation assay on NMCdkn2a^ARF−/− cells; format: cell-based, murine; settings: 5 days, read-out: EC (NMCdkn2a^ARF−/−)
From the text: (§1) To evaluate the effect of small molecules equipped with R-spine interacting moieties, the inventors screened a focused library of proprietary p38a MAP-Kinase inhibitors which were equipped with R-spine interacting pharmacophores. To this end, the inventors utilized a screening system as developed in Dauch et al.^2 The screening system is based on colony formation assays of cell lines isolated from Nras-driven, Trp53-deficient murine HCCs, whose development is dependent on MYC (NMP53^−/− cells), as well as Nras-driven, Cdkn2a^ARF-deficient murine HCCs, which develop independently of MYC (NMCdkn2a^ARF−/− cells). Importantly, NMP53^−/− cells are sensitive to AURKA inhibitors, which induce a conformational shift in AURKA, whereas NMCdkn2a^ARF−/− are not sensitive to such compounds.
(§2) For Colony Formation Assays, cells were seeded at a density of 50 000 cells per 6 well and next day treated with a 2-fold dilution series of the indicated compounds or the highest corresponding DMSO concentration as control. After 5 days, the cells were fixed with a 10% formaldehyde solution for 30 min, washed once with water, stained with a 0.5% crystal violet solution for 30 min and washed twice with water. The compounds effective concentration (EC) was determined according to the lowest concentration in the dilution series, that inhibited cell growth substantially. The resulting benzamide containing hit structure 1, with a twofold selectivity towards NMP53^−/− cells (effective concentration on NMP53^−/− cells (EC): 2 μM, EC on Cdkn2a^ARF−/−: 4 μM, FIG. 1), served as the inventors' starting point for further compound development.

[2] = tested on: NMP53^−/− cells; test: Colony formation assay on NMP53^−/− cells; format: cell-based, murine; settings: colony formation assay; for minimal effective concentration: 5 days, read-out: EC (NMP53^−/−)
From the text: as §1, §2

[3] = molecular target: AURKA (Homo sapiens (Human), UniProt O14965); test: Radioisotope filter binding assay (HotSpotSM; ReactionBiology) for AURKA kinase inhibition; format: biochemical
AURKA, sequence (O14965 whole entry): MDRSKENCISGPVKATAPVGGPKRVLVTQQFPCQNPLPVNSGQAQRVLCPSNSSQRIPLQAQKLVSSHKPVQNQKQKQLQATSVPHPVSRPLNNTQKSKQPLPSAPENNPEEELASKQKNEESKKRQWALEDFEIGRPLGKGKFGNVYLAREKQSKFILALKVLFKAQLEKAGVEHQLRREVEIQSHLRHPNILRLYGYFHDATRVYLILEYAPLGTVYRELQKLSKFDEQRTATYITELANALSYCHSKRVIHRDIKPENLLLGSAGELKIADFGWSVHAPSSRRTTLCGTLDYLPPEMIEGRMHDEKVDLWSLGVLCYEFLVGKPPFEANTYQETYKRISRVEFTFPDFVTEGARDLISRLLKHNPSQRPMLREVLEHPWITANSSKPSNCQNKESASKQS
From the text: Table 2 summarizes the EC values of different compounds of this invention determined by colony formation assays on NMP53^−/− and NMCdkn2a^ARF−/− cells, as well as the corresponding IC50 values for the kinase inhibition of AURKA, determined by radioisotope filter binding assay (HotSpotSM; ReactionBiology). Most compounds further show a strong selectivity for NMP53^−/− cells, which is indicated by a lower EC concentration of a particular compound required for inhibiting cell growth of NMP53^−/− cells compared to NMCdkn2a^ARF−/− cells.

[4] = molecular target: MYC-AURKA interaction (Mus musculus (Mouse), UniProt P97477); test: Proximity ligation assay (PLA) for MYC and AURKA in NMP53^−/− cells; format: cell-based, murine; settings: 24 h after treatment
MYC-AURKA interaction, sequence (P97477 whole entry): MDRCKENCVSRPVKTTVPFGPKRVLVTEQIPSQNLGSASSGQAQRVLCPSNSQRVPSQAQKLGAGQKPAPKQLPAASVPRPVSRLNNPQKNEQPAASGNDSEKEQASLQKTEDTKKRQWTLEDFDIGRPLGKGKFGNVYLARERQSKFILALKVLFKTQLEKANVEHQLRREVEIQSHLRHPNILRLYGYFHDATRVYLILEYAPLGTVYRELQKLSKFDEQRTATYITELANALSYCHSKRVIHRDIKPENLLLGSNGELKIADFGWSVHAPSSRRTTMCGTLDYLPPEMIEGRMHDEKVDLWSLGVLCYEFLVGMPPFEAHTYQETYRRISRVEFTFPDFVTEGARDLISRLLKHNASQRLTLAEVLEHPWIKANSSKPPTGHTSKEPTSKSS
Experimental: To examine whether this MYC degradation is associated with MYC-AURKA PPI disruption, the inventors performed proximity ligation assays (PLA) in NMP53^−/− cells. For Proximity Ligation Assay (PLA), 50 000 cells were seeded on 12 mm glass slides placed in 6 well plates. On the next day, the cells were treated with the indicated compounds or the corresponding DMSO concentration for 2 h (compound 2c [N-(5-((4-(1H-pyrazole-4-yl)benzyl)amino)-2-fluorophenyl)-3-(furan-2-yl)propanamide] and compound 3a [N-(2-fluoro-5-((4-(1-methyl-1H-pyrazole-4-yl)benzyl)amino)phenyl)-3-(furan-2-yl)propanamide]) or 24 h (alisertib) and fixed for 10 min in 100% MeOH at −20° C. The glass slides were removed from the 6 well plates and the cells permeabilized with TBS+0.3% Triton X-100 for 5 min. After washing with PBS and blocking with 5% BSA in TBS+0.05% Tween for 30 min, the slides were incubated with MYC (Abeam ab32072, 1:200) and AURKA (Abcam ab13824, 1:200) specific antibodies in 1% BSA in TBS+0.05% Tween for 120 min at RT and washed 3 times with PBS for 5 min, wherein the MYC/TPX2 and AURKA specific antibodies are derived from a different species. After a 20 min pre-incubation of two PLA probes, directed against either species of the MYC/TPX2 and AURKA specific antibodies, at RT (DUO92001 and DUO92005 Sigma Aldrich, diluted 1:10 in 1% BSA in TBS+0.05% Tween), the slides were incubated with the probes for 60 min at 37° C. in a humidified chamber. The slides were washed 3 times with 1× wash buffer A (Sigma Aldrich DUO82049) for 5 min and incubated with the ligase solution (ligase diluted 1:40 in 5× ligase buffer and ddH2O, Sigma Aldrich DUO92008) for 60 min at 37° C. in a humidified chamber. […] The foci per cell were counted in a way that the cytoplasmic foci are counted to the cell with the closest nucleus (DAPI). Significance was calculated with the GraphPad Prism 8.4.0 software (GraphPad Software, La Jolla, CA) by using the nonparametric Mann Whitney test.

[5] = tested on: late stage HCC; settings: patients with late stage HCC, on average; cited from earlier work
[6] = Mus musculus, 120 h, lowest concentration of 2-fold dilution series that inhibited cell growth substantially

Question: With `O=C(CCc1ccccc1)Nc1cc(NCc2ccc(-c3cn[nH]c3)cc2)ccc1F` [Compound 2a, N-(5-((4-(1H-pyrazole-4-yl)benzyl)amino)-2-fluorophenyl)-3-phenylpropanamide] as the compound, how does the minimal effective concentration [1] read?
Answer: >4 µM

Question: And the minimal effective concentration [1, 6]?
Answer: 2 µM

Question: And the minimal effective concentration [2, 6]?
Answer: 0.5 µM

Question: And the “selectivity for NMP53^−/− cells” value ([2]; NMP53^−/− versus NMCdkn2a^ARF−/− cells)?
Answer: 4 fold

Question: What about the minimal effective concentration [2] of the same compound?
Answer: >4 µM

Question: What about the IC50 [3] of the same compound?
Answer: 6.9 µM

Question: Which results are given for `O=C(Cc1ccccc1)Nc1cc(NCc2cc(-c3cc4cccnc4[nH]3)ccn2)ccc1F` [Compound 18c, N-(5-(((4-(1H-Pyrrolo[2,3-b]pyridin-2-yl)pyridin-2-yl)methyl)amino)-2-fluorophenyl)-2-phenylacetamide]?
Answer: minimal effective concentration ([1]; Mus musculus, 120 h): 0.5 µM; minimal effective concentration ([2]; Mus musculus, 120 h): 0.25 µM; IC50 [3]: > 10 µM

Question: Which minimal effective concentration ([1]; Mus musculus, 120 h) does the source give for `O=C(CCc1ccccc1)Nc1cc(NCc2ccc(-c3cn[nH]c3)cc2)ccc1F` [Compound 95b, N-(5-((4-(1H-Pyrazol-4-yl)benzyl)amino)-2-fluorophenyl)-3-phenylpropanamide] here?
Answer: 2 µM

Question: And the minimal effective concentration [2]?
Answer: 0.5 µM

Question: What about the IC50 [3] of the same compound?
Answer: 0.0079 µM

Question: For `Cn1cc(-c2ccc(CNc3ccc(F)c(NC(=O)CCc4ccccc4)c3)cc2)cn1` [Compound 97, N-(2-fluoro-5-((4-(1-methyl-1H-pyrazol-4-yl)benzyl)amino)phenyl)-3-phenylpropanamide], which minimal effective concentration ([1]; Mus musculus, 120 h) is on record?
Answer: 1 µM

Question: And the minimal effective concentration ([2]; Mus musculus, 120 h)?
Answer: 0.25 µM

Question: And the IC50 [3]?
Answer: 0.532 µM

Question: Which minimal effective concentration ([1]; Mus musculus, 120 h) does the source give for `Cn1cc(-c2ccc(CNc3ccc(F)c(NC(=O)CCc4ccoc4)c3)cc2)cn1` [Compound 107n, N-(2-fluoro-5-((4-(1-methyl-1H-pyrazol-4-yl)benzyl)amino)phenyl)-3-(furan-3-yl)propanamide] here?
Answer: > 0.25 µM

Question: What about the minimal effective concentration ([2]; Mus musculus, 120 h) of the same compound?
Answer: 0.062 µM

Question: And the IC50 [3]?
Answer: > 10 µM

Question: What does the source list for `Cn1cc(-c2ccc(CNc3ccc(F)c(NC(=O)CCc4cccs4)c3)cc2)cn1` [Compound 107o, N-(2-fluoro-5-((4-(1-methyl-1H-pyrazol-4-yl)benzyl)amino)phenyl)-3-(thiophen-2-yl)propanamide]?
Answer: minimal effective concentration ([1]; Mus musculus, 120 h): 1 µM; minimal effective concentration ([2]; Mus musculus, 120 h): 0.125 µM; IC50 [3]: > 10 µM

Question: What does the source list for `Cn1cc(-c2ccc(CNc3ccc(F)c(NC(=O)CCc4ccsc4)c3)cc2)cn1` [Compound 107p, N-(2-fluoro-5-((4-(1-methyl-1H-pyrazol-4-yl)benzyl)amino)phenyl)-3-(thiophen-3-yl)propanamide]?
Answer: minimal effective concentration ([1]; Mus musculus, 120 h): > 0.25 µM; minimal effective concentration ([2]; Mus musculus, 120 h): 0.062 µM; IC50 [3]: > 10 µM

Question: Which minimal effective concentration ([1]; Mus musculus, 120 h) does the source give for `Cn1cc(-c2ccc(CNc3ccc(F)c(NC(=O)/C=C/c4ccco4)c3)cc2)cn1` [Compound 107r, (E)-N-(2-fluoro-5-((4-(1-methyl-1H-pyrazol-4-yl)benzyl)amino)phenyl)-3-(furan-2-yl)acrylamide] here?
Answer: > 0.25 µM

Question: What about the minimal effective concentration ([2]; Mus musculus, 120 h) of the same compound?
Answer: 0.062 µM

Question: And the IC50 [3]?
Answer: > 10 µM

Question: What does the source list for `Cn1cc(-c2ccc(CNc3ccc(F)c(NC(=O)C=Cc4ccccc4)c3)cc2)cn1` [Compound 107s, N-(2-fluoro-5-((4-(1-methyl-1H-pyrazol-4-yl)benzyl)amino)phenyl)cinnamamide]?
Answer: minimal effective concentration ([1]; Mus musculus, 120 h): > 1 µM; minimal effective concentration ([2]; Mus musculus, 120 h): 0.5 µM; IC50 [3]: > 10 µM

Question: With `Cc1noc(C)c1-c1ccc(CNc2ccc(F)c(NC(=O)CCc3ccco3)c2)cc1` [Compound 139, N-(5-((4-(3,5-Dimethylisoxazol-4-yl)benzyl)amino)-2-fluorophenyl)-3-(furan-2-yl)propanamide] as the compound, how does the minimal effective concentration ([1]; Mus musculus, 120 h) read?
Answer: 1 µM

Question: What about the minimal effective concentration ([2]; Mus musculus, 120 h) of the same compound?
Answer: 0.5 µM

Question: With `Nc1n[nH]cc1-c1ccc(CNc2ccc(F)c(NC(=O)CCc3ccco3)c2)cc1` [Compound 144, N-(5-((4-(3-Amino-1H-pyrazol-4-yl)benzyl)amino)-2-fluorophenyl)-3-(furan-2-yl)propanamide] as the compound, how does the minimal effective concentration ([1]; Mus musculus, 120 h) read?
Answer: > 1 µM

Question: And the minimal effective concentration ([2]; Mus musculus, 120 h)?
Answer: 0.25 µM

Question: What does the source list for `Cn1cc(-c2ccc(CNc3ccc(F)c(NC(=O)CCc4ccco4)c3)cc2)c(N)n1` [Compound 145, N-(5-((4-(3-Amino-1-methyl-1H-pyrazol-4-yl)benzyl)amino)-2-fluorophenyl)-3-(furan-2-yl)propanamide]?
Answer: minimal effective concentration ([1]; Mus musculus, 120 h): > 1 µM; minimal effective concentration ([2]; Mus musculus, 120 h): 0.25 µM

Question: Which minimal effective concentration ([1]; Mus musculus, 120 h) does the source give for `Cn1ncc(-c2ccc(CNc3ccc(F)c(NC(=O)CCc4ccco4)c3)cc2)c1N` [Compound 146, N-(5-((4-(5-Amino-1-methyl-1H-pyrazol-4-yl)benzyl)amino)-2-fluorophenyl)-3-(furan-2-yl)propanamide] here?
Answer: > 1 µM

Question: And the minimal effective concentration ([2]; Mus musculus, 120 h)?
Answer: 0.125 µM

Question: Which minimal effective concentration ([1]; Mus musculus, 120 h) does the source give for `Cn1ccc(Nc2ccc(CNc3ccc(F)c(NC(=O)CCc4ccco4)c3)cc2)n1` [Compound 155, N-(2-fluoro-5-((4-((1-methyl-1H-pyrazol-3-yl)amino)benzyl)amino)phenyl)-3-(furan-2-yl)propanamide] here?
Answer: > 1 µM

Question: And the minimal effective concentration ([2]; Mus musculus, 120 h)?
Answer: 0.25 µM

Question: Which minimal effective concentration ([1]; Mus musculus, 120 h) does the source give for `CC(=O)n1cc(-c2ccc(CNc3ccc(F)c(NC(=O)CCc4ccco4)c3)cc2)cn1` [Compound 164, N-(5-((4-(1-Acetyl-1H-pyrazol-4-yl)benzyl)amino)-2-fluorophenyl)-3-(furan-2-yl)propanamide] here?
Answer: > 1 µM

Question: What about the minimal effective concentration ([2]; Mus musculus, 120 h) of the same compound?
Answer: 0.125 µM

Question: Which results are given for `NCCn1cc(-c2ccc(CNc3ccc(F)c(NC(=O)CCc4ccco4)c3)cc2)cn1` [Compound 167, N-(5-((4-(1-(2-Aminoethyl)-1H-pyrazol-4-yl)benzyl)amino)-2-fluorophenyl)-3-(furan-2-yl)propanamide]?
Answer: minimal effective concentration ([1]; Mus musculus, 120 h): 1 µM; minimal effective concentration ([2]; Mus musculus, 120 h): 0.5 µM

Question: For `COc1cc(Nc2ncc3c(n2)-c2ccc(Cl)cc2C(c2c(F)cccc2OC)=NC3)ccc1C(=O)O` [alisertib, reference compound], which “reduction of the MYC-AURKA interaction compared to DMSO” value [4] is on record?
Answer: 60%

Question: For `CNC(=O)c1cc(Oc2ccc(NC(=O)Nc3ccc(Cl)c(C(F)(F)F)c3)cc2)ccn1` [sorafenib], which prolonged survival [5] is on record?
Answer: 2.8 months
